Test results: patent US20050209157A1, “Short bioactive peptides and methods for their use” (priority 2001, published 2005)
≈ marks a conversion by molar mass, not a printed value.

Tests used:
[1] = system: Pseudomonas aeruginosa ATCC 27853; assay: Antimicrobial assay I, modified protocol (tryptic soy broth), MBC; conditions: minimum bactericidal concentration, Table 4
[2] = system: Candida albicans ATCC 10231; assay: Antimicrobial assay I, modified protocol (tryptic soy broth), MFC; conditions: minimum fungicidal concentration, Table 4
Protocol: (§1) The preparation of all media, stock solutions, and dilutions took place in a laminar flow hood to prevent contamination. Bacterial cells were freshly grown on antibiotic medium 2 agar slants (pH 7.0 at 25° C.). Bacteria were suspended and diluted in antibiotic medium 3 to about 10^4 cfu/ml and used as the inoculum. Sample solutions (100 μl/well) were added to plates according to the plate layout. Inoculum (100 μl/well) was added to achieve a final concentration of 5×10^3 cfu/ml. Negative controls received 100 μl saline and 100 μl growth medium. Positive controls received 100 μl saline and 100 μl inoculum. Bacterial plates were incubated at 37° C. for 24 hours.
(§2) However, the data for Table 4 were obtained with a modified protocol wherein the medium was tryptic soy broth, inocolum strength was approximately 10^4 CFU per ml, and values determined were minimum bactericidal concentrations (MBC) or minimum fungicidal concentrations (MFC).
(§3) MBC or MFC values are in μg/mL. E. coli is Escherichia coli ATCC accession number 25922; P. aerug is Pseudomonas aeruginosa ATCC accession number 27853, S. aur. is Stapholococcus aureus ATCC accession number 25923; Candida is Candida albicans ATCC accession number 10231.

[3] = system: Escherichia coli ATCC 25922; assay: Antimicrobial assay I, modified protocol (tryptic soy broth), MBC; conditions: minimum bactericidal concentration, Table 4
[4] = system: Stapholococcus aureus ATCC 25923; assay: as above; conditions: minimum bactericidal concentration, Table 4
Protocol: as §1, §2, §3

SMILES | MBC P. aerug A.27853 [1] [µg/mL] | MFC Candida A.10231 [2] [µg/mL] | MBC E. coli A.25922 [3] [µg/mL] | MBC S. aur A.25923 [4] [µg/mL]
CC(C)C[C@H](NC(=O)[C@H](CCCCN)NC(=O)[C@H](Cc1c[nH]c2ccccc12)NC(=O)[C@H](CCCCN)NC(=O)[C@H](CCCCN)NC(=O)[C@H](C)NC(=O)[C@H](CC(C)C)NC(=O)[C@H](CCCCN)NC(=O)[C@H](CCCCN)NC(=O)[C@H](C)NC(=O)[C@H](CC(C)C)NC(=O)[C@H](CCCCN)NC(=O)[C@H](CCCCN)NC(=O)[C@H](CC(C)C)NC(=O)[C@H](CCCCN)NC(=O)[C@H](CCCCN)NC(=O)[C@H](C)NC(=O)[C@H](CC(C)C)NC(=O)[C@H](CCCCN)NC(=O)[C@H](CCCCN)NC(=O)[C@H](C)NC(=O)[C@@H](N)Cc1ccccc1)C(=O)O [compound 72] | 40 (≈ 15.3 µM) | >50 | >50 | >50
CC(C)C[C@H](NC(=O)[C@H](C)NC(=O)[C@H](C)NC(=O)[C@H](CCCCN)NC(=O)[C@H](C)NC(=O)[C@H](CC(C)C)NC(=O)[C@H](CCCCN)NC(=O)[C@H](CCCCN)NC(=O)[C@H](C)NC(=O)[C@H](CC(C)C)NC(=O)[C@H](CCCCN)NC(=O)[C@H](CCCCN)NC(=O)[C@H](C)NC(=O)[C@@H](N)Cc1ccccc1)C(N)=O [compound 76] | >55 | >50 | 40 (≈ 26.7 µM) | >55
CC(C)C[C@H](NC(=O)[C@H](CCCCN)NC(=O)[C@H](CCCCN)NC(=O)[C@H](C)NC(=O)[C@H](CC(C)C)NC(=O)[C@H](CCCCN)NC(=O)[C@H](C)NC(=O)[C@H](CCCCN)NC(=O)[C@H](CCCCN)NC(=O)[C@H](C)NC(=O)[C@H](CC(C)C)NC(=O)[C@H](CCCCN)NC(=O)[C@H](CCCCN)NC(=O)[C@H](C)NC(=O)[C@@H](N)Cc1ccccc1)C(N)=O [compound 77] | >50 | >50 | >50 | >50
CC(C)C[C@H](NC(=O)[C@H](CCCCN)NC(=O)[C@H](CCCCN)NC(=O)[C@H](C)NC(=O)[C@H](CC(C)C)NC(=O)[C@H](CCCCN)NC(=O)[C@H](CCCCN)NC(=O)[C@H](CC(C)C)NC(=O)[C@H](CCCCN)NC(=O)[C@H](CCCCN)NC(=O)[C@H](C)NC(=O)[C@@H](N)Cc1ccccc1)C(N)=O [compound 79] | >50 | >50 | >50 | >50
CC(C)C[C@H](NC(=O)[C@H](CCCCN)NC(=O)[C@H](C)NC(=O)[C@H](CC(C)C)NC(=O)[C@H](CC(C)C)NC(=O)[C@H](CCCCN)NC(=O)[C@H](C)NC(=O)[C@@H](N)Cc1ccccc1)C(=O)N[C@@H](C)C(=O)N[C@@H](CCCCN)C(=O)N[C@@H](CCCCN)C(=O)N[C@@H](C)C(=O)N[C@@H](C)C(N)=O [compound 93] | >50 | >50 | >50 | >50
CC(C)C[C@H](NC(=O)[C@H](CCCCN)NC(=O)[C@H](C)NC(=O)[C@H](CC(C)C)NC(=O)[C@H](CC(C)C)NC(=O)[C@H](CCCCN)NC(=O)[C@H](C)NC(=O)[C@@H](N)Cc1ccccc1)C(=O)N[C@@H](C)C(=O)N[C@@H](CCCCN)C(=O)N[C@@H](C)C(=O)N[C@@H](CCCCN)C(=O)N[C@@H](C)C(N)=O [compound 95] | >50 | >50 | >50 | >50
CC(C)C[C@H](NC(=O)[C@H](CCCCN)NC(=O)[C@H](C)NC(=O)[C@H](CC(C)C)NC(=O)[C@H](CC(C)C)NC(=O)[C@H](CCCCN)NC(=O)[C@H](C)NC(=O)[C@@H](N)Cc1ccccc1)C(=O)N[C@@H](C)C(=O)N[C@@H](CCCCN)C(=O)N[C@@H](C)C(=O)N[C@@H](CCCCN)C(=O)NCC(N)=O [compound 96] | >50 | >50 | >50 | >50
CC(C)C[C@H](NC(=O)[C@H](CCCCN)NC(=O)[C@H](CC(C)C)NC(=O)[C@H](CCCCN)NC(=O)[C@H](CC(C)C)NC(=O)[C@H](C)NC(=O)[C@H](CCCCN)NC(=O)[C@H](C)NC(=O)[C@H](CC(C)C)NC(=O)[C@H](CC(C)C)NC(=O)[C@H](CCCCN)NC(=O)[C@H](C)NC(=O)[C@@H](N)Cc1ccccc1)C(N)=O [compound 101] | >50 | 40 (≈ 27.5 µM) | 300 (≈ 206 µM) | >50
CC(C)C[C@H](NC(=O)[C@H](CCCCN)NC(=O)[C@H](CC(C)C)NC(=O)[C@H](C)NC(=O)[C@H](CCCCN)NC(=O)[C@H](C)NC(=O)[C@H](CC(C)C)NC(=O)[C@H](CC(C)C)NC(=O)[C@H](CCCCN)NC(=O)[C@H](CCCCN)NC(=O)[C@H](C)NC(=O)[C@@H](N)Cc1ccccc1)C(N)=O [compound 110] | >50 | >50 | 8 (≈ 5.96 µM) | >50
CC(C)C[C@H](NC(=O)[C@H](CC(C)C)NC(=O)[C@H](CCCCN)NC(=O)[C@H](C)NC(=O)[C@H](CC(C)C)NC(=O)[C@H](C)NC(=O)[C@H](CCCCN)NC(=O)[C@H](CCCCN)NC(=O)[C@H](C)NC(=O)[C@H](CC(C)C)NC(=O)[C@H](CCCCN)NC(=O)[C@H](C)NC(=O)[C@@H](N)Cc1ccccc1)C(N)=O [compound 148] | >250 | 100 (≈ 70.7 µM) | 150 (≈ 106 µM) | >250
CC(C)C[C@H](NC(=O)[C@H](CC(C)C)NC(=O)[C@H](CCCCN)NC(=O)[C@H](C)NC(=O)[C@H](CC(C)C)NC(=O)[C@H](C)NC(=O)[C@H](CCCCN)NC(=O)[C@H](CCCCN)NC(=O)[C@H](C)NC(=O)[C@H](CC(C)C)NC(=O)[C@H](CCCCN)NC(=O)[C@H](C)NC(=O)[C@@H](N)CCCCN)C(N)=O [compound 149] | >250 | 100 (≈ 71.7 µM) | 150 (≈ 108 µM) | >250
CC(C)C[C@H](NC(=O)[C@H](CCCCN)NC(=O)[C@H](C)NC(=O)[C@H](CC(C)C)NC(=O)[C@H](CC(C)C)NC(=O)[C@H](CCCCN)NC(=O)[C@H](C)NC(=O)[C@@H](N)Cc1ccccc1)C(=O)N[C@@H](C)C(=O)N[C@@H](CCCCN)C(=O)N[C@@H](CCCCN)C(N)=O [compound 151] | >250 | 100 (≈ 81.3 µM) | >250 | >250
CC(C)C[C@H](NC(=O)CNC(=O)[C@H](CCCCN)NC(=O)[C@H](CCCCN)NC(=O)[C@H](C)NC(=O)[C@H](CC(C)C)NC(=O)[C@H](CCCCN)NC(=O)[C@H](C)NC(=O)[C@H](CC(C)C)NC(=O)[C@H](CC(C)C)NC(=O)[C@H](CCCCN)NC(=O)[C@H](C)NC(=O)[C@@H](N)Cc1ccccc1)C(N)=O [compound 152] | 150 (≈ 107 µM) | 50 (≈ 35.7 µM) | 150 (≈ 107 µM) | >250
CC(C)C[C@H](NC(=O)[C@H](C)NC(=O)[C@H](CCCCN)NC(=O)[C@H](CCCCN)NC(=O)[C@H](C)NC(=O)[C@H](CC(C)C)NC(=O)[C@H](CCCCN)NC(=O)[C@H](C)NC(=O)[C@H](CC(C)C)NC(=O)[C@H](CC(C)C)NC(=O)[C@H](CCCCN)NC(=O)[C@H](C)NC(=O)[C@@H](N)Cc1ccc(O)cc1)C(N)=O [compound 155] | >250 | >250 | >250 | >250
CC(C)C[C@H](NC(=O)[C@H](CC(C)C)NC(=O)[C@H](CCCCN)NC(=O)[C@H](CC(C)C)NC(=O)[C@H](CC(C)C)NC(=O)[C@H](CCCCN)NC(=O)[C@H](CCCCN)NC(=O)[C@H](Cc1ccc(O)cc1)NC(=O)[C@H](CC(C)C)NC(=O)[C@H](CCCCN)NC(=O)[C@H](CC(C)C)NC(=O)[C@H](CC(C)C)NC(=O)[C@H](CC(C)C)NC(=O)[C@H](CCCCN)NC(=O)[C@H](CC(C)C)NC(=O)[C@H](CC(C)C)NC(=O)[C@@H](N)CCCCN)C(=O)O [compound 156] | >250 | >250 | 100 (≈ 48 µM) | >250
CC[C@H](C)[C@H](NC(=O)[C@H](C)NC(=O)[C@H](CCCNC(=N)N)NC(=O)[C@H](CC(C)C)NC(=O)CNC(=O)[C@@H](NC(=O)[C@H](C)NC(=O)[C@@H](N)Cc1ccccc1)C(C)C)C(=O)N[C@@H](CCCCN)C(=O)N[C@@H](CCCNC(=N)N)C(=O)N[C@@H](C)C(=O)N[C@@H](CC(C)C)C(=O)N[C@@H](CCCCN)C(=O)N[C@@H](CCCCN)C(=O)N[C@@H](CC(C)C)C(=O)N[C@@H](CCCNC(=N)N)C(=O)N[C@@H](CCCNC(=N)N)C(=O)NCC(=O)N[C@H](C(=O)N[C@@H](CCCNC(=N)N)C(=O)N[C@@H](CCCCN)C(=O)N[C@H](C(=O)N[C@@H](C)C(=O)N[C@@H](CCCCN)C(=O)N[C@@H](CC(=O)O)C(=O)N[C@@H](CC(C)C)C(N)=O)C(C)C)C(C)C [compound 157] | >250 | >250 | 75 (≈ 25.3 µM) | >250
CC(C)C[C@H](NC(=O)[C@H](C)NC(=O)[C@H](CCCCN)NC(=O)[C@H](C)NC(=O)[C@H](CC(C)C)NC(=O)[C@H](CCCCN)NC(=O)[C@H](C)NC(=O)[C@H](CC(C)C)NC(=O)[C@H](CCCCN)NC(=O)[C@H](C)NC(=O)[C@H](CC(C)C)NC(=O)[C@H](CCCCN)NC(=O)[C@H](CCCCN)NC(=O)[C@H](C)NC(=O)[C@H](CC(C)C)NC(=O)[C@@H](N)CCCCN)C(N)=O [compound 159] | 10 (≈ 5.86 µM) | 50 (≈ 29.3 µM) | 10 (≈ 5.86 µM) | >250
